# Laboratory results taken from US20240115875A1, “Systems, Methods, and Substances for Controlled Endoluminal Energy Application” (Dream Big Biotechnologies B.V., priority 2021, published 2024).
# Experiments:
# [1] = test system: tumor tissue; conditions: input of the simulation, cited from earlier work; for Tumor uptake: assumed tissue uptake; for Molar extinction coefficient ϵ: at the wavelength given with each photosensitizer (630-690 nm)
# [2] = test system: tumor tissue; test: Estimated PDT threshold doses for several photosensitizers (photodynamic threshold model); conditions: in tumor, from uptake and molar weight
# Procedure: In these simulations, we assumed intravenous administration of a light-absorbing drug and the placement of a light emitter in the endovascular system at the site of tumor encroachment around it. Light absorbed by the photosensitizer was assumed to result in the local creation of short-lived cytotoxic radicals, causing cell death e.g. hemorrhagic tissue necrosis and apoptosis. To quantify the attainable effects, light-dose escalation studies were performed using Monte Carlo light propagation simulations (FullMonteCUDA) (“High-performance, robustly verified Monte Carlo simulation with FullMonte,” J. Biomed. Opt. 23(8), 085001 (2018)). The use of the photosensitizer BPD-MA mediated PDT was initially investigated in a simple “cube and tube” geometry representing the pancreas and a vessel traversing its center. The multilayered tube represented the vascular wall layers, intima, media and adventitia having an air-filled balloon with a linear line source in the center. […] Simulation properties were assigned as described above and PDT activation energies were escalated over the range of 10-100 J cm^−1 diffuser length, and the anticipated threshold dose in mJ·cm^−3 and radii of necrosis were estimated based on the photodynamic threshold model introduced by Patterson M, Wilson B C, Graff R: In vivo test of the concept of photodynamic threshold dose in normal rat liver photosensitized by aluminum chlorosulfunated phthalocyanine. Photochem Photobiol, 51(3): 343-349, 1990.
# The pancreatic model is shown in FIG. 7A comprising a 4×4×5 cm cube, one half is assigned with optical properties of normal pancreatic tissue and the other half with those of cancerous pancreatic tissues. Running through the cube's center is a blood vessel made up of three layers, intima, media, adventitia, with assigned properties from the literature for aortic tissues. An initial dose-escalation simulation investigated if an adequate fluence [J·cm^−2] can be delivered through the vessel wall to create a surgically sufficiently large circumferential necrotic margin (mm) surrounding the vessel, based on the photosensitizer accumulation and the sensitizer's molar extinction coefficient. The vessel's inner diameter and wall thickness were set to 7.0 mm and 1.30 mm, respectively. The energy emitting source was cylindrical in shape with a length of 20 mm and the irradiance at the intima surface was fixed at 200 mW·cm^−2. The exposure times escalated to deliver 10 to 100 J total energy. An example of the absorbed energy density as a function of radius from the vessel center is shown in FIG. 7B, with an estimated necrotic margin ranging from […]. The subsequent necrotic clearing of viable tumor tissue from the adventitia is predicted based on the threshold model for common photosensitizers, see Tables 1 and 2.
# [3] = test system: porcine pancreas and target vessels (splenic, hepatic, superior mesenteric artery)
# Procedure: Five large white porcine (Sus scrofa domesticus), weighing between 25-43 kg, were used as animal model, because the anatomy of the porcine pancreas and its vasculature closely resembles that of the human. Animals were handled according to the European Directive 2010/63 and French laws concerning animal protection in laboratories.
# Following the intravascular procedure, porcine recovered from anesthesia and were housed for a survival period of 24 hours up to one week. After the survival period the sedation protocol above was repeated and general anesthesia was induced using intravenous (18 G Intravenous catheter in-ear vein) propofol 3 mg/kg, followed by orotracheal intubation and maintained with rocuronium 0.8 mg/kg along with inhaled isoflurane 2%. At the end of the experiment, animals were euthanized with an intravenous injection of pentobarbital 40 mg/kg IV (Exagon ND, Axience).
# To counteract possible effects of BPD-MA on the porcine blood pressure, the antihistamine dexchlorpheniramine was given the days before and immediately prior to the start of photosensitizer infusion. Polaramine® was administered at 2 mg p.o. BID to TID the day before and Polaramine® 5 mg IV (slow bolus) 30 to 60 minutes before photosensitizer injection. Methylprednisolone SoluMedrol®120 (3 mg kg-1) was administered also IV (slow bolus) 30 to 60 minutes before photosensitizer injection. […]
# To visualize the pancreas and its target vessels for treatment planning, non-enhanced and contrast-enhanced CT scans were carried out shortly before treatment, in the early arterial and early portal venous phase. […] A 3D vascular roadmap was obtained via software manipulation (syngo.via, Siemens Healthineers AG, Germany) and the position, morphology and dimensions of the target vessels were assessed and used for later co-localization during the angiography-guided procedure and placement of a suitably sized PDT light source, being a prototype irradiating balloon catheter. […]
# [4] = In-vivo porcine model, heart rate and blood pressure during photosensitizer infusion; parameters: species or system Sus scrofa domesticus; conditions: for changes in blood pressure or heart rate during the injection: 5% i.v. dextrose drip
# Procedure: The preclinical experiments in pigs required some precautions.
# […] […] The animal gradually recovered after 10 to 20 min and stabilized to normal heart rates.
# [5] = test system: porcine pancreas, splenic vein and artery; test: In-vivo dose escalation in healthy porcine, endovascular balloon-catheter PDT, 48h CT and histopathology
# Procedure: The performance of Monte Carlo simulations determined that the photosensitizer verteporfin appears to be a suitable photosensitizer and that perivascular necrosis can occur when irradiating at relevant light dose ranges in a clinically acceptable time range of several minutes. In-vivo experiments were carried out in healthy porcine (n=7) delivering light irradiation from an endovascular balloon-catheter laser probe.
# The irradiating balloon catheter was placed in the splenic vein (crosshair) and an increasingly large hypodense margin, interpreted as PDT induced necrosis, can be observed for increasing doses.
# In FIG. 12A, the pancreas can be observed with the splenic vein, artery, and the approximate location of the irradiating balloon catheter. Radially extending into the pancreas is a circumferential margin of necrosis (dotted line and arrows, circa 10 mm).
Compound,Tumor uptake [1] [mg/g],Photosensitizer concentration [2],Molar extinction coefficient ϵ [1],"hypodense area around the target vessel on contrast-enhanced CT, extending outwards from the outer wall of the vessel (possible PDT-induced necrosis) ([3]; 0.4-1.6 mg·kg^−1 i.v., 690 nm, 150 mW·cm^−2, 75-225 J·cm^−2, CT 24 h to one week)",splenic arterial wall histopathology ([3]; in vivo),vessel structural integrity on contrast-enhanced CT ([3]; in vivo),"changes in heart rate during injection ([4]; first porcine, i.v. saline drip, without pre-medications, injection stopped at 0.2 mg kg^−1)","changes in blood pressure or heart rate during the injection ([4]; porcine 2-3, pre-medicated excluding heparin, 0.4 mg·kg^−1)","changes in blood pressure or heart rate during the injection ([4]; porcine 4-5, pre-medicated including heparin, 1.6 mg·kg^−1)","radius of apparent perivascular circumferential tissue necrosis ([5]; 0.4-3.2 mg/kg, light irradiation 8-25 minutes, 48h contrast-enhanced CT and histopathology, n=7)","artery and vein wall histopathology ([5]; L-size dose 1.6 mg/kg, 48h post PDT)","circumferential margin of necrosis extending into the pancreas, histopathology ([5]; L-size dose 1.6 mg/kg, 48h post PDT, H&E and EVG)"
c1ccc2c(c1)-c1nc-2nc2[nH]c(nc3nc(nc4[nH]c(n1)c1ccccc41)-c1ccccc1-3)c1ccccc21 [Phthalocyanine],12.3,2.3 · 10^−5 M,–,–,–,–,–,–,–,–,–,–
C=Cc1c(C)c2cc3nc(c(CC(=O)N[C@@H](CC(=O)O)C(=O)O)c4[nH]c(cc5nc(cc1[nH]2)C(C)=C5CC)c(C)c4C(=O)O)[C@@H](CCC(=O)O)[C@@H]3C [Talaporfin],1.62,2.2 · 10^−6 M,"40,000 M^−1 cm^−1",–,–,–,–,–,–,–,–,–
"Oc1cccc(-c2c3nc(c(-c4cccc(O)c4)c4ccc([nH]4)c(-c4cccc(O)c4)c4nc(c(-c5cccc(O)c5)c5ccc2[nH]5)CC4)C=C3)c1 [Temoporfin, 5,10,15,20-Tetra(m-hydroxyphenyl)chlorin]",0.5,–,–,–,–,–,–,–,–,–,–,–
Photofrin,8.1,6.8 · 10^−6 M,"1,170 M^−1 cm^−1",–,–,–,–,–,–,–,–,–
benzoporphyrin derivative monoacid ring A [Verteporfin],23.9,3.3 · 10^−5 M,"33,000 M^−1 cm^−1",2-6 mm,"endothelial loss and necrotic cellular tissues were observed, but the extracellular matrix containing collagen and elastin was preserved in some cases","no perforations, ruptures, and bleedings were observed","Immediate changes occurred in the heart rate, decreasing to a degree that adrenaline was administered to stabilize the animal",No changes occurred in blood pressure or heart rate during the injection,No changes occurred in blood pressure or heart rate during the injection,2-15 mm,intact vessel unruptured walls albeit with atrophic muscular cells and ulcerated endothelial cells,circa 10 mm
